From PubChem BioAssay (NCI)
“And” between values parts separate entries of the source, which are not always exact repeats. Identical values can stand only once.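 Briefly, cells in 96-well plates were exposed to five compound concentrations for 48 h, and endpoints were estimated by linear interpolation. GI50: concentration for 50% inhibition of growth. TGI marks complete inhibition of growth.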

Legend:
Test in all cases: DTP human tumour cell line panel, 48 h
SNB-19 CNS = system: SNB-19 CNS
SW-620 colon = system: SW-620 colon
EKVX NSCLC = system: EKVX NSCLC
HCC-2998 colon = system: HCC-2998 colon
IGROV1 ovarian = system: IGROV1 ovarian
UACC-257 melanoma = system: UACC-257 melanoma
M14 melanoma = system: M14 melanoma
786-0 renal = system: 786-0 renal
NCI-H522 lung = system: NCI-H522 lung
SNB-75 CNS = system: SNB-75 CNS

## Cc1ccc(C2CC(c3ccc([N+](=O)[O-])cc3)=Nc3ccccc3S2)cc1 (configuration not stated)
SNB-19 CNS
  TGI: > 100 µM
SW-620 colon
  TGI: 46.6 µM
EKVX NSCLC
  TGI: > 100 µM
HCC-2998 colon
  TGI: 40.3 µM
IGROV1 ovarian
  TGI: 87.5 µM
UACC-257 melanoma
  TGI: > 100 µM
M14 melanoma
  TGI: > 100 µM
786-0 renal
  TGI: 28 µM
NCI-H522 lung
  TGI: 73.3 µM
SNB-75 CNS
  TGI: 82 µM

## O=c1oc2cc(N=Cc3ccccc3Cl)ccc2c2ccccc12
SNB-19 CNS
  TGI: > 100 µM
SW-620 colon
  TGI: > 100 µM
EKVX NSCLC
  TGI: > 100 µM
HCC-2998 colon
  TGI: > 100 µM
IGROV1 ovarian
  TGI: > 100 µM
UACC-257 melanoma
  TGI: > 100 µM
M14 melanoma
  TGI: > 100 µM
786-0 renal
  TGI: > 100 µM
NCI-H522 lung
  TGI: > 100 µM
SNB-75 CNS
  TGI: > 100 µM

## NC(=O)c1cc(-c2ccncc2)cc(-c2ccccc2)c1N
SNB-19 CNS
  GI50: > 25 µM
  TGI: > 25 µM
SW-620 colon
  GI50: > 25 µM
  TGI: > 25 µM
EKVX NSCLC
  GI50: > 20.2 µM
  TGI: > 25 µM
HCC-2998 colon
  GI50: > 25 µM
  TGI: > 25 µM
IGROV1 ovarian
  GI50: 9.48 µM
  TGI: > 25 µM
UACC-257 melanoma
  GI50: > 25 µM
  TGI: > 25 µM
M14 melanoma
  GI50: > 25 µM
  TGI: > 25 µM
786-0 renal
  GI50: 15.9 µM
  TGI: > 25 µM
NCI-H522 lung
  GI50: 7.68 µM
  TGI: > 15.8 µM
SNB-75 CNS
  GI50: 4.76 µM
  TGI: 19.6 µM

## O=C(/C=C/C12c3ccccc3C(c3ccccc31)C1C(=O)N(c3ccccc3)C(=O)C12)c1ccc(Cl)cc1 (configuration not stated)
SNB-19 CNS
  GI50: 2.68 µM
  TGI: > 100 µM
SW-620 colon
  GI50: 2.27 µM
  TGI: > 100 µM
EKVX NSCLC
  GI50: 1.85 µM
  TGI: 9.89 µM
HCC-2998 colon
  GI50: 1.7 µM
  TGI: 3.66 µM
IGROV1 ovarian
  GI50: 2.1 µM
  TGI: 6.09 µM
UACC-257 melanoma
  GI50: 2.13 µM
  TGI: 5.5 µM
M14 melanoma
  GI50: 2.14 µM
  TGI: 6.78 µM
786-0 renal
  GI50: 2.44 µM
  TGI: 6.97 µM
NCI-H522 lung
  GI50: 1.74 µM
  TGI: 3.58 µM
SNB-75 CNS
  GI50: 1.37 µM
  TGI: 6.77 µM

## N=Nc1c(OC(=O)Nc2ccccc2)[nH]c2ccccc12
SNB-19 CNS
  TGI: 63 µM
SW-620 colon
  TGI: > 100 µM
EKVX NSCLC
  TGI: > 100 µM
HCC-2998 colon
  TGI: 29.7 µM
IGROV1 ovarian
  TGI: 42.2 µM
UACC-257 melanoma
  TGI: 92.2 µM
M14 melanoma
  TGI: 37.9 µM
786-0 renal
  TGI: 32.6 µM
NCI-H522 lung
  TGI: 36.6 µM
SNB-75 CNS
  TGI: 50 µM

## CC(=O)Nc1ccc(-c2c3nc(c(-c4cc5ccccc5[n+](C)c4)c4ccc([nH]4)c(-c4ccc(NC(C)=O)cc4)c4nc(c(-c5cc6ccccc6[n+](C)c5)c5ccc2[nH]5)C=C4)C=C3)cc1
SNB-19 CNS
  GI50: 10.9 µM
  TGI: 49.1 µM
SW-620 colon
  GI50: 23.6 µM
  TGI: > 50 µM
EKVX NSCLC
  GI50: 9.09 µM
  TGI: 31.6 µM
HCC-2998 colon
  GI50: > 50 µM
  TGI: > 50 µM
IGROV1 ovarian
  GI50: 13.7 µM
  TGI: > 50 µM
UACC-257 melanoma
  GI50: 11.7 µM
  TGI: 47.6 µM
M14 melanoma
  GI50: 28.6 µM
  TGI: > 50 µM
786-0 renal
  GI50: 9.97 µM
  TGI: 35.6 µM
NCI-H522 lung
  GI50: 14.6 µM
  TGI: > 50 µM
SNB-75 CNS
  GI50: 2.17 µM
  TGI: 11.7 µM

## O=S1CSCS1 (configuration not stated)
SNB-19 CNS
  TGI: > 100 µM
SW-620 colon
  TGI: > 100 µM
EKVX NSCLC
  TGI: > 100 µM
HCC-2998 colon
  TGI: > 100 µM
IGROV1 ovarian
  TGI: > 100 µM
UACC-257 melanoma
  TGI: > 100 µM
M14 melanoma
  TGI: > 100 µM
786-0 renal
  TGI: > 100 µM
NCI-H522 lung
  TGI: > 100 µM
SNB-75 CNS
  TGI: > 100 µM

## COC1C(O)C(C)OC(OC2C(Oc3cccc4c(O)c5c(=O)oc6ccc(C)c7c(=O)oc(c34)c5c67)OC(C)C3O[C@H](c4ccccc4)OC32)C1O (some centres not stated)
SNB-19 CNS
  TGI: 19.2 µM
SW-620 colon
  TGI: 14.3 µM
EKVX NSCLC
  TGI: 5.99 µM
HCC-2998 colon
  GI50: 0.276 µM
  TGI: 3.41 µM
IGROV1 ovarian
  TGI: 3.42 µM
UACC-257 melanoma
  GI50: 0.798 µM and 0.372 µM
  TGI: 3.86 µM
M14 melanoma
  GI50: 0.514 µM
  TGI: 6.48 µM
786-0 renal
  TGI: 7.16 µM
NCI-H522 lung
  GI50: 0.284 µM and 0.262 µM
  TGI: 6.78 µM
SNB-75 CNS
  TGI: 7.65 µM

## O=C(c1ccccc1)C(c1ccccc1)C1(O)C(=O)Nc2ccccc21 (configuration not stated)
SNB-19 CNS
  TGI: > 100 µM
SW-620 colon
  TGI: > 100 µM
EKVX NSCLC
  TGI: > 100 µM
HCC-2998 colon
  TGI: > 100 µM
IGROV1 ovarian
  TGI: > 100 µM
UACC-257 melanoma
  TGI: > 100 µM
M14 melanoma
  TGI: > 100 µM
786-0 renal
  TGI: > 100 µM
NCI-H522 lung
  TGI: > 100 µM
SNB-75 CNS
  TGI: > 100 µM

## CC1(C)C(c2ccccc2)C12CCC1(C2=O)C(c2ccccc2)C1(C)C (configuration not stated)
SNB-19 CNS
  TGI: 76.5 µM
SW-620 colon
  TGI: 46.8 µM
EKVX NSCLC
  TGI: 69.3 µM
HCC-2998 colon
  TGI: 34.4 µM
IGROV1 ovarian
  TGI: > 100 µM
UACC-257 melanoma
  TGI: 37.4 µM
M14 melanoma
  TGI: 75.5 µM
786-0 renal
  TGI: 66.2 µM
NCI-H522 lung
  TGI: 30.5 µM
SNB-75 CNS
  TGI: 90.1 µM

## O=C(O)C1CCc2nnc(-c3ccccc3)n21 (configuration not stated)
SNB-19 CNS
  TGI: > 100 µM
SW-620 colon
  TGI: > 100 µM
EKVX NSCLC
  TGI: > 100 µM
HCC-2998 colon
  TGI: > 100 µM
IGROV1 ovarian
  TGI: > 100 µM
UACC-257 melanoma
  TGI: > 100 µM
M14 melanoma
  TGI: > 100 µM
786-0 renal
  TGI: > 100 µM
NCI-H522 lung
  TGI: > 100 µM
SNB-75 CNS
  TGI: > 100 µM

## C=C1C(=O)O[C@H]2[C@H]1CC/C(Cn1cc(CNCCc3c[nH]c4ccc(Cl)cc34)nn1)=C\CC[C@@]1(C)O[C@@H]21
SNB-19 CNS
  GI50: 8.69 µM
  TGI: 32.4 µM
SW-620 colon
  GI50: 1.82 µM
  TGI: 3.88 µM
EKVX NSCLC
  GI50: 15.5 µM
  TGI: 37.4 µM
HCC-2998 colon
  GI50: 20.3 µM
  TGI: 44.6 µM
IGROV1 ovarian
  GI50: 2.44 µM
  TGI: 9.59 µM
UACC-257 melanoma
  GI50: 10.7 µM
  TGI: 27 µM
M14 melanoma
  GI50: 13.7 µM
  TGI: 31.2 µM
786-0 renal
  GI50: 2.89 µM
  TGI: 10.2 µM
NCI-H522 lung
  GI50: 1.58 µM
  TGI: 3.12 µM
SNB-75 CNS
  GI50: 4.88 µM
  TGI: 17.9 µM

## Cc1cc(=O)oc2c(CN3CCCCC3)c(O)ccc12
SNB-19 CNS
  TGI: > 100 µM
SW-620 colon
  TGI: > 100 µM
EKVX NSCLC
  TGI: > 100 µM
HCC-2998 colon
  TGI: > 100 µM
IGROV1 ovarian
  TGI: > 100 µM
UACC-257 melanoma
  TGI: > 100 µM
M14 melanoma
  TGI: > 100 µM
786-0 renal
  TGI: > 100 µM
NCI-H522 lung
  TGI: > 100 µM
SNB-75 CNS
  TGI: > 100 µM

## O=C1c2ccccc2C(=O)C2C1C1C(=O)c3ccccc3C(=O)C21 (configuration not stated)
SNB-19 CNS
  TGI: > 100 µM
SW-620 colon
  TGI: > 100 µM
EKVX NSCLC
  TGI: > 100 µM
HCC-2998 colon
  TGI: > 100 µM
IGROV1 ovarian
  TGI: > 100 µM
UACC-257 melanoma
  TGI: > 100 µM
M14 melanoma
  TGI: > 100 µM
786-0 renal
  TGI: > 100 µM
NCI-H522 lung
  TGI: > 100 µM
SNB-75 CNS
  TGI: > 100 µM

## COc1c(C2=NC(C(C)C)CO2)ccc2ccccc12 (configuration not stated)
SNB-19 CNS
  TGI: > 100 µM
SW-620 colon
  TGI: > 100 µM
EKVX NSCLC
  TGI: > 100 µM
HCC-2998 colon
  TGI: > 100 µM
IGROV1 ovarian
  TGI: > 100 µM
UACC-257 melanoma
  TGI: > 100 µM
M14 melanoma
  TGI: > 100 µM
786-0 renal
  TGI: > 100 µM
NCI-H522 lung
  TGI: 99.8 µM
SNB-75 CNS
  TGI: > 100 µM

## NC(C/[N+]([O-])=N/O)C(=O)O (configuration not stated)
SNB-19 CNS
  GI50: 0.595 µM and 5.93 µM and 1.36 µM
  TGI: > 100 µM and 268 µM
SW-620 colon
  GI50: 9.22 µM and 19.7 µM and 15.1 µM
  TGI: > 100 µM and 417 µM
EKVX NSCLC
  TGI: > 100 µM and 371 µM
HCC-2998 colon
  TGI: > 100 µM and 302 µM
IGROV1 ovarian
  GI50: 0.107 µM and 0.967 µM and 0.348 µM
  TGI: > 24.7 µM and > 100 µM and 256 µM
UACC-257 melanoma
  GI50: 18 µM and 68.2 µM and 52.5 µM
  TGI: > 100 µM and 456 µM
M14 melanoma
  GI50: 28.9 µM and 37.5 µM and 24.4 µM
  TGI: > 459 µM
786-0 renal
  GI50: 1.16 µM and 9.72 µM and 4.15 µM
  TGI: > 500 µM
NCI-H522 lung
  GI50: 8.03 µM and 33.6 µM
  TGI: > 59.6 µM and 284 µM
SNB-75 CNS
  GI50: 13.4 µM and 10.2 µM and 101 µM
  TGI: > 500 µM

## Cc1cc(=O)n(-c2ccccc2)c(=O)o1
SNB-19 CNS
  TGI: > 100 µM
SW-620 colon
  TGI: > 100 µM
EKVX NSCLC
  TGI: > 100 µM
HCC-2998 colon
  TGI: > 100 µM
IGROV1 ovarian
  TGI: > 100 µM
UACC-257 melanoma
  TGI: > 100 µM
M14 melanoma
  TGI: > 100 µM
786-0 renal
  TGI: > 100 µM
NCI-H522 lung
  TGI: > 100 µM
SNB-75 CNS
  TGI: > 100 µM

## CCCN(CCCN)/[N+]([O-])=N\O
SNB-19 CNS
  TGI: > 100 µM
SW-620 colon
  TGI: > 100 µM
EKVX NSCLC
  TGI: 0.921 µM
HCC-2998 colon
  TGI: > 100 µM
IGROV1 ovarian
  TGI: > 100 µM
UACC-257 melanoma
  TGI: > 100 µM
M14 melanoma
  TGI: > 100 µM
786-0 renal
  TGI: > 100 µM
NCI-H522 lung
  TGI: > 100 µM
SNB-75 CNS
  TGI: > 100 µM
